Data taken from ChEMBL document CHEMBL1157186, “Characterization of chemical components in extracts from Si-wu decoction with proliferation-promoting effects on rat mesenchymal stem cells” (Bioorg Med Chem, 2008).
Calls of active or inactive are those of the source. The rule behind the calls is not given here.

Test system: Mesenchymal stem cell
Test: Induction of proliferation of rat mesenchymal stem cells by MTT assay
Type: functional, cell-based

SMILES | Activity
CC/C=C1\OC(=O)C2=C1C=CC(O)C2O (configuration not stated) | Active
CCC/C=C1\OC(=O)C2=C1CCC=C2 | Active
